Assay results published in patent publication US20240041877A1, “DOSAGE REGIME AND METHOD FOR TREATING PULMONARY ARTERIAL HYPERTENSION” (Altavant Sciences GmbH, priority 2019, published 2024).
Read-outs that look alike come from different tables or passages of the source.

Experiment: Part 1 (SAD): urine pharmacokinetics (amount excreted, renal clearance) after a single oral dose of KAR5585
Assay type: in vivo, human
Settings: for CL renal: human
Protocol: Renal clearance of KAR5417 was calculated from the area under the plasma time concentration curve (AUC0-96) for KAR5417 and the amount of KAR5417 recovered in urine (Table 21).

[1] = KAR5585 in urine, 100 mg KAR5585 single oral dose, mean
[2] = KAR5585 in urine, 200 mg KAR5585 single oral dose, mean
[3] = KAR5585 in urine, 400 mg (Fasted) KAR5585 single oral dose, mean
[4] = KAR5585 in urine, 400 mg (Fed) KAR5585 single oral dose, mean
[5] = KAR5585 in urine, 700 mg KAR5585 single oral dose, mean

Nc1nc(O[C@H](c2ccc(Cl)cc2-c2ccccc2)C(F)(F)F)cc(N2CCC3(CC2)CN[C@H](C(=O)O)C3)n1 [KAR5417, (S)-8-(2-amino-6-((R)-1-(5-chloro-[1,1T-biphenyl]-2-yl)-2,2,2-trifluoroeth-oxy)pyrimidin-4-yl)-2,8-diazaspiro[4.5]decane-3-carboxylic acid]
highest amount excreted in urine (400 mg fed Cohort (Cohort 3B)): 0.331 % of the dose | Amount Excreted (Ae) (KAR5417 in urine, 100 mg KAR5585 single oral dose, mean): 233 µg | Total Excreted (%) (KAR5417 in urine, 100 mg KAR5585 single oral dose, mean, assuming complete conversion of KAR5585 to KAR5417): 0.245% | Amount Excreted (Ae) (KAR5417 in urine, 200 mg KAR5585 single oral dose, mean): 211 µg | Total Excreted (%) (KAR5417 in urine, 200 mg KAR5585 single oral dose, mean, assuming complete conversion of KAR5585 to KAR5417): 0.111% | Amount Excreted (Ae) (KAR5417 in urine, 400 mg (fasted) KAR5585 single oral dose, mean): 769 µg | Total Excreted (%) (KAR5417 in urine, 400 mg (fasted) KAR5585 single oral dose, mean, assuming complete conversion of KAR5585 to KAR5417): 0.202% | Amount Excreted (Ae) (KAR5417 in urine, 400 mg (fed) KAR5585 single oral dose, mean): 1260 µg | Total Excreted (%) (KAR5417 in urine, 400 mg (fed) KAR5585 single oral dose, mean, assuming complete conversion of KAR5585 to KAR5417): 0.331% | Amount Excreted (Ae) (KAR5417 in urine, 700 mg KAR5585 single oral dose, mean): 998 µg | Total Excreted (%) (KAR5417 in urine, 700 mg KAR5585 single oral dose, mean, assuming complete conversion of KAR5585 to KAR5417): 0.150% | Amount Excreted (Ae) (KAR5417 in urine, 1200 mg KAR5585 single oral dose, mean): 1170 µg | Total Excreted (%) (KAR5417 in urine, 1200 mg KAR5585 single oral dose, mean, assuming complete conversion of KAR5585 to KAR5417): 0.102% | Amount Excreted (Ae) (KAR5417 in urine, 2000 mg KAR5585 single oral dose, mean): 2130 µg | Total Excreted (%) (KAR5417 in urine, 2000 mg KAR5585 single oral dose, mean, assuming complete conversion of KAR5585 to KAR5417): 0.112% | CL renal (plasma and urine, oral, from plasma AUC0-96 and amount recovered in urine, read-out: Renal clearance, range across doses): 2.62 to 4.93 mL/min | CL renal (urine and plasma, po, 100 mg, KAR5417, 100 mg KAR5585 single oral dose, mean, read-out: CLR (converted)): 4.93 mL/min | CL renal (urine and plasma, po, 200 mg, KAR5417, 200 mg KAR5585 single oral dose, mean, read-out: CLR (converted)): 2.67 mL/min | CL renal (urine and plasma, po, 400 mg, KAR5417, 400 mg (fasted) KAR5585 single oral dose, mean, read-out: CLR (converted)): 3.62 mL/min | CL renal (urine and plasma, po, 400 mg, KAR5417, 400 mg (fed) KAR5585 single oral dose, mean, read-out: CLR (converted)): 3.18 mL/min | CL renal (urine and plasma, po, 700 mg, KAR5417, 700 mg KAR5585 single oral dose, mean, read-out: CLR (converted)): 3.18 mL/min | CL renal (urine and plasma, po, 1200 mg, KAR5417, 1200 mg KAR5585 single oral dose, mean, read-out: CLR (converted)): 2.62 mL/min | CL renal (urine and plasma, po, 2000 mg, KAR5417, 2000 mg KAR5585 single oral dose, mean, read-out: CLR (converted)): 3.43 mL/min

CCOC(=O)[C@@H]1CC2(CCN(c3cc(O[C@H](c4ccc(Cl)cc4-c4ccccc4)C(F)(F)F)nc(N)n3)CC2)CN1 [KAR5585, (S)-ethyl 8-(2-amino-6-((R)-1-(5-chloro-[1,1′-biphenyl]-2-yl)-2,2,2-trifluoroethoxy)pyrimidin-4-yl)-2,8-diazaspiro[4.5]decane-3-carboxylate]
Amount Excreted (Ae) [1]: 0 µg | Total Excreted (%) [1]: 0% | Amount Excreted (Ae) [2]: 0 µg | Total Excreted (%) [2]: 0% | Amount Excreted (Ae) [3]: 13.8 µg | Total Excreted (%) [3]: 0.00346% | Amount Excreted (Ae) [4]: 0 µg | Total Excreted (%) [4]: 0% | Amount Excreted (Ae) [5]: 0 µg | Total Excreted (%) [5]: 0% | Amount Excreted (Ae) (KAR5585 in urine, 2000 mg KAR5585 single oral dose, mean): 1.50 µg | CL renal (urine and plasma, po, 2000 mg, KAR5585, 2000 mg KAR5585 single oral dose, mean, read-out: CLR (converted)): 0.0383 mL/min
